US20250049894A1, “TREATMENT OF NUDT2 MUTATION” (UNIVERSITÉ DE GENÈVE, priority 2021, published 2025)

System: Ap4A-RNA
Experiment: In vitro Ap4A-RNA decapping assay (cap-labelled RNA, thin-layer chromatography)
Format: biochemical
Settings: recombinant protein 250 nM to 750 nM, 37° C., 30 min, TLC
Protocol: Briefly, using the Ap4A mixture (ATP and Ap4A) or Ap4A instead of ATP for in vitro transcription by MEGAshortscript™ T7 Transcription Kit (Life technologies; Cat. No. AM1354), we produced a 50 nt RNA. Template is the same as making 50 nt RNA for MEFs transfection. Note that if the mixture is used, this nucleotide mixture (ATP and Ap4A) still has all the components (lysine, inorganic pyrophosphatase etc) added during the Ap4A synthesis. In vitro transcription reaction was carried out at 37° C. for at least 4 h in a 20 μL reaction containing 6 pmol DNA template, 2 μL 10× reaction buffer, 2 μL of nucleotides (75 mM CTP, 75 mM UTP, 75 mM GTP), 2 μL of ATP/Ap4A mixture that we produced above, and 2 μL T7 enzyme mix (MEGAshortscript™ Kit, Life technologies, Cat. No. AM1354). After that, 1 μL TURBO DNase was added and incubated at 37° C. for 15 min to remove the DNA template. Unincorporated nucleotides were removed from the RNA preparation by Microspin G-25 Column (GE Healthcare, Cat. No. 27-5325-01), and the process was repeated twice. The radioactively labelled RNA was separated by 10% urea gel. […]
Decapping reaction products were resolved by PEI-cellulose TLC plates (Merk, Cat. No. 1057250001) and developed in 0.45 M (NH4)2SO4 in a glass chamber at room temperature. […] When required, signals were quantified by ImageQuantTL.

DCP2 (NUDT20): recombinant untagged mouse DCP2 catalytic core domain (95-260 aa)
Ap4A-RNA decapping activity: only NUDT2 has Ap4A-RNA decapping activity
